Experiment [1] has as its target T1, CYCLIN K (nuclear staining in CAL-120 cells) (Homo sapiens, UniProt O75909).
T1 construct: endogenous in cells; host or cells: CAL-120 human breast cancer cells (DSMZ ACC 459)
The experiment can be described thus: CYCLIN K nuclear protein level: immunofluorescence high content analysis (CAL-120). The format is cell-based. The following applies: 24 h, 50% reduction of nuclear CCNK staining intensity, median, read-out: CYCLIN K degradation IF, DC50-[mol/l] (median). The method, then: 8. CYCLIN K nuclear protein level: immunofluorescence High Content Analysis
CAL-120 human breast cancer cells (DSMZ ACC 459) are seeded in 1536-well microtiter plates (800 cells per well) containing 50 nanoL of compounds in Dose-Response. Control wells received DMSO or Example 4. Plates are then incubated for 24 h at 37° C. in an humidified incubator and fixed with 4% PFA for 10 min. Then immunofluorescence (IF) against CYCLIN K (ThermoFisher Scientific CONK Antibody #PA5-85020, rabbit, 1:200 dilution) is performed using standard IF protocols. Cells are then stained with Hoechst 33342 (Life Technologies, H-1399, 0.1 microg/ml) and imaged on an automated confocal microscopy system (e.g. Perkin Elmer Opera Phenix). Nuclear and cytoplasmic intensity as well as the nuclear/cytoplasmic intensity ratio is determined by automated image analysis using custom generated scripts (MetaXpress). Data is then transferred to Genedata Screener software, normalized to DMSO and control and DC50 values (degrading concentration to achieve 50% reduction of nuclear CCNK staining intensity relative to controls) are reported.

The target of experiment [2] is T2, CDK12 (nuclear staining in CAL-120 cells) (Homo sapiens, UniProt Q9NYV4).
T2 construct: endogenous in cells; host or cells: CAL-120 human breast cancer cells (DSMZ ACC 459)
T2 sequence (Q9NYV4 whole entry): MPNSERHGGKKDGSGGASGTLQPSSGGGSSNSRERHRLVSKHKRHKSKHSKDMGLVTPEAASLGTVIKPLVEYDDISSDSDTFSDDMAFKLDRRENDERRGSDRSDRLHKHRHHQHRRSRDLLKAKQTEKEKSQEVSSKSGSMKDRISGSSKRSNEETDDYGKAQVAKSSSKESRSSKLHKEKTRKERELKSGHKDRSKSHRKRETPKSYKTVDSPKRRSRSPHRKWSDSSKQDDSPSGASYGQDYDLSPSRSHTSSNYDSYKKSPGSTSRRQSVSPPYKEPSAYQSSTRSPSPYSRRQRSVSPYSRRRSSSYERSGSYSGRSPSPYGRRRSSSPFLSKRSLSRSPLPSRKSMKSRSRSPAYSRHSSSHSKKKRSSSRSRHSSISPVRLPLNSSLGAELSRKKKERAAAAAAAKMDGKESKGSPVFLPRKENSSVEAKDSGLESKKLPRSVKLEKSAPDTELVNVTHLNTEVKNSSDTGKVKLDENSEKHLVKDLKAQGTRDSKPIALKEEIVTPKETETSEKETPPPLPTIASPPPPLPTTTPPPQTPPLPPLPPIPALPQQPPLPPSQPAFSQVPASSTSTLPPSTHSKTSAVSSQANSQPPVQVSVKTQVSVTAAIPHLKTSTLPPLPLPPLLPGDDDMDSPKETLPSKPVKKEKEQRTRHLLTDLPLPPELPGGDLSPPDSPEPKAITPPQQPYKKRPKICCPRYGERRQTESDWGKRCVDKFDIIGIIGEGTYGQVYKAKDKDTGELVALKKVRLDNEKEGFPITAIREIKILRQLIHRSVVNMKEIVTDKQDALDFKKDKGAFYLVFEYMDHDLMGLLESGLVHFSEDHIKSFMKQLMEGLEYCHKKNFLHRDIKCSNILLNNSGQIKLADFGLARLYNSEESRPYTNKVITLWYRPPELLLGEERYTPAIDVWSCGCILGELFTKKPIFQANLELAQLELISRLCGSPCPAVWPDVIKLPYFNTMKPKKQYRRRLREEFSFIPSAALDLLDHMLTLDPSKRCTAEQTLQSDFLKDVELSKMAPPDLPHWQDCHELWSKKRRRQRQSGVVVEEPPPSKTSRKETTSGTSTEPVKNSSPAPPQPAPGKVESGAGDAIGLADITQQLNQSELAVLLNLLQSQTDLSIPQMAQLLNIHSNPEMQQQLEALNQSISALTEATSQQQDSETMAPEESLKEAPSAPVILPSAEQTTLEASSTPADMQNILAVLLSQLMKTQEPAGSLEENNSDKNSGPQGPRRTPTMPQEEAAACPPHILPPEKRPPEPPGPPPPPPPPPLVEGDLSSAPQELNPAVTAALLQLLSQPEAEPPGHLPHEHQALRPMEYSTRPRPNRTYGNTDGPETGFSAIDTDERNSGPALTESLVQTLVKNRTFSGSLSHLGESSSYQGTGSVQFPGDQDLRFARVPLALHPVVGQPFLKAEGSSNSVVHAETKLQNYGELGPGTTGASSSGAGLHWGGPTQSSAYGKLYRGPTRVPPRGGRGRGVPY
T2 sequence (O75909 whole entry partner): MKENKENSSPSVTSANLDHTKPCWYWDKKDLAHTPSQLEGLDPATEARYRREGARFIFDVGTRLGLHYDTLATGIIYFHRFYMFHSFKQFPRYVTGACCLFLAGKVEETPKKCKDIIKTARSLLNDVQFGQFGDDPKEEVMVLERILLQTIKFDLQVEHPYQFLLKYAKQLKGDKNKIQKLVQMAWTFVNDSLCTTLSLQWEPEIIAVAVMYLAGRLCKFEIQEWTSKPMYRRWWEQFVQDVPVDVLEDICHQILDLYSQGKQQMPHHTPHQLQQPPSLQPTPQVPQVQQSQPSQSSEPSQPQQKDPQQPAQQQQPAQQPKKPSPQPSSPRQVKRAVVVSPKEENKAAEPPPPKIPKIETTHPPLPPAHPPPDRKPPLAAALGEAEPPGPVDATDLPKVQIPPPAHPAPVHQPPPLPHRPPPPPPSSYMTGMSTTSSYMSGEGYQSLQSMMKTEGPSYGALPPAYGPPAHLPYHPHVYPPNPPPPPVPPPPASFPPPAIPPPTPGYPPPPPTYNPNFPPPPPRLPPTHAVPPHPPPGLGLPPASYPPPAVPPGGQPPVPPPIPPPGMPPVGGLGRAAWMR
In words: CDK12 nuclear protein level: immunofluorescence/high content analysis (CAL-120). The format is cell-based. Particulars: for DC50: CAL-120 cells, 24 h, immunofluorescence, 50% reduction of nuclear CDK12 staining intensity, median, read-out: CDK12 degradation IF, DC50- [mol/l] (median); for (IC50 CDK12 high ATP) to (Degradation DC50 CDK12) ratio: ratio of IC50 CDK12 high ATP kinase assay to DC50 CDK12 degradation (IF, CAL-120). The method, then:
In the context of the present invention, the term “DC50 CDK12” refers to the DC50 values obtained according to the assay described in this section (7) herein below, i.e. the DC50 values for the degradation of CDK12.
Plates are then incubated for 24 h at 37° C. in an humidified incubator and fixed with 4% PFA for 10 min. […] Nuclear and cytoplasmic intensity as well as the nuclear/cytoplasmic intensity ratio is determined by automated image analysis using custom generated scripts (MetaXpress). Data is then transferred to Genedata Screener software, normalized to DMSO and control and DC50 values (degrading concentration to achieve 50% reduction of nuclear CDK12 staining intensity relative to controls) are reported.

Experiment [3] relates to BRCA1 mRNA expression in MDA-MB-231 cells. The experiment can be described thus: qRT-PCR assay: BRCA1 mRNA expression in MDA-MB-231. The format is cell-based, human. Particulars: Homo sapiens, MDA-MB-231, Inhibition of BRCA1 mRNA expression in MDA-MB-231 cells; median; read-out: RTqPCR-MDA-MB-231, IC50, BRCA1 (median). The method, then: 3. qRT-PCR Assay: BRCA, ATR, MCL1 in MDA-MB-231, CAL-120
Tissue cultured human MDA-MB-231 human breast cancer cells were plated in 500 microL per well at 200,000 cells/well in a 24 well microtiter plate. After 24 h, the cells were exposed continuously for 24 h to test substances (substances were added with Tecan HP 0300 Dispenser). RNA was prepared using Qiagen RNeasy MiniKit (#74106), RNA was quantified using a NanoDrop Equipment, and 600 nano gamms of RNA was coverted to cDNA using a SuperScript VILO kit (Thermofisher #11755050) followed by qPCR amplification. BRCA1 and ATR gene expression was measured by RT-qPCR and normalised to GAPDH housekeeping gene expression. qPCR primer sets have been purchased from Thermo Fisher Scientific/Applied Biosystems: BRCA1, #Hs 01556193; ATR, #Hs 00992123; GAPDH, #Hs 03929097.
On the technique in general: Real-time PCR tracks product formation cycle by cycle.

The test system of experiment [4] is CAL-120, human breast adenocarcinoma cells. The experiment can be described thus: Proliferation assay CAL-120 (crystal violet, 4 days). Format: cell-based. Particulars: Homo sapiens, CAL-120, 96 h, CAL-120 cells, median, read-out: Prolif-CAL-120, IC50-[mol/l] (median). The method, then:
Human tumour cells were originally obtained from the American Type Culture Collection (ATCC), or from the Deutsche Sammlung von Mikroorganismen und Zellkulturen (DSMZ, German Collection of Microorganisms and Cell Cultures). Cultivated tumour cells (CAL-120, human breast adenocarcinoma cells, DSMZ ACC-459; MDA-MB-231, human breast cancer cells, ATCC HTB-26) were plated at a density of 4,000 cells/well in a 96-well multititer plate in 200 microL of their respective growth medium supplemented 10% fetal calf serum. After 24 hours, the cells of one plate (zero-point plate) were stained with crystal violet (see below), while the medium of the other plates was supplemented with the test substances in various concentrations (0 micromol/L, as well as in the range of 0.01-10 micromol/L; the final concentration of the solvent dimethyl sulfoxide was adjusted to 0.1%) using a Tecan HP D300 Digital Dispenser. The cells were incubated for 4 days in the presence of test substances. Cell proliferation was determined by staining the cells with crystal violet: the cells were fixed by adding 20 microL/measuring point of an 11% glutaric aldehyde solution for 15 minutes at room temperature. After three washing cycles of the fixed cells with water, the plates were dried at room temperature. The cells were stained by adding 100 microL/measuring point of a 0.1% crystal violet solution (pH 3.0). After three washing cycles of the stained cells with water, the plates were dried at room temperature. The dye was dissolved by adding 100 microL/measuring point of a 10% acetic acid solution. The extinction was determined by photometry at a wavelength of 595 nm. The change of cell number, in percent, was calculated by normalization of the measured values to the extinction values of the zero-point plate (=0%) and the extinction of the untreated (0 μM) cells (=100%). The IC50 values (inhibitory concentration at 50% of maximal effect) were determined by means of a 4 parameter fit.

T1 sequence (O75909 whole entry): as the sequence (O75909 whole entry partner) above
T1 sequence (Q9NYV4 whole entry partner): as the sequence (Q9NYV4 whole entry) above

As to `C[C@@H]1CN(c2nc(NCc3nnc(-c4ccccc4)[nH]3)n3ncc(Br)c3n2)C[C@H](C)N1C` [Example 125, 8-bromo-N-[(5-phenyl-4H-1,2,4-triazol-3-yl)methyl]-2-[(3R,5S)-3,4,5-trimethylpiperazin-1-yl]pyrazolo[1,5-a][1,3,5]triazin-4-amine], the DC50 worked out at 1.2 nM in experiment [1] and 6.3 nM in experiment [2]. Moreover, the “(IC50 CDK12 high ATP) to (Degradation DC50 CDK12) ratio” value in experiment [2] amounted to 1724. Besides, the results for the IC50 in experiment [3] and in experiment [4] were 61.1 nM and 53.1 nM, respectively.
In the same order, the values of `COc1ccc2[nH]c(CNc3nc(N4CCN(C)CC4)nc4c(Br)cnn34)nc2c1` [Example 161, 8-bromo-N-[(5-methoxy-1H-benzimidazol-2-yl)methyl]-2-(4-methylpiperazin-1-yl)pyrazolo[1,5-a][1,3,5]triazin-4-amine] are 1.3 nM, 0.856 nM, 11233, 2.53 nM and 3.3 nM.
Taken in the same sequence, the figures for `Fc1cccc2[nH]c(CNc3nc(N4CCOCC4)nc4c(Br)cnn34)nc12` [Example 97, 8-bromo-N-[(4-fluoro-1H-benzimidazol-2-yl)methyl]-2-(morpholin-4-yl)pyrazolo[1,5-a][1,3,5]triazin-4-amine] were 0.467 nM, 0.327 nM, 2411, 1.68 nM and 5.17 nM.
As to `CC(C)c1cnn2c(NCc3nc4ccccc4[nH]3)nc(N3CCCOCC3)nc12` [Example 8, N-[(1H-benzimidazol-2-yl)methyl]-2-(1,4-oxazepan-4-yl)-8-(propan-2-yl)pyrazolo[1,5-a][1,3,5]triazin-4-amine], the DC50 in experiment [1] was determined as 26.9 nM. In experiment [2], the DC50 came out at 20.7 nM and the “(IC50 CDK12 high ATP) to (Degradation DC50 CDK12) ratio” value is more than 956. In experiment [3], the IC50 is 93.7 nM.
Taken in the same sequence, the figures for `CC(C)c1cnn2c(NCc3nc4ccccc4[nH]3)nc(N(C)CC(C)(C)O)nc12` [Example 5, 1-{[4-{[(1H-benzimidazol-2-yl)methyl]amino}-8-(propan-2-yl)pyrazolo[1,5-a][1,3,5]triazin-2-yl](methyl)amino}-2-methylpropan-2-ol] were 1.95 nM, 11.4 nM, 455 and 23.3 nM.
`CC1(C)CN(c2nc(NCc3nnc(-c4ccccc4)[nH]3)n3ncc(C4CC4)c3n2)CCO1` [Example 94, 8-cyclopropyl-2-(2,2-dimethylmorpholin-4-yl)-N-[(5-phenyl-4H-1,2,4-triazol-3-yl)methyl]pyrazolo[1,5-a][1,3,5]triazin-4-amine]: in experiment [2], the DC50 amounted to 25 nM and the “(IC50 CDK12 high ATP) to (Degradation DC50 CDK12) ratio” value came out at 352. Moreover, in experiment [3], the IC50 turned out to be 222 nM. Besides, the IC50 in experiment [4] is 177 nM.
Consider `CC(C)c1cnn2c(NCc3nc4ccccc4[nH]3)nc(N3CCOC[C@@H]3C)nc12` [Example 6, N-[(1H-benzimidazol-2-yl)methyl]-2-[(3S)-3-methylmorpholin-4-yl]-8-(propan-2-yl)pyrazolo[1,5-a][1,3,5]triazin-4-amine], for which the DC50 in experiment [1] is 2.36 nM; in experiment [2], 3.32 nM. Also, the “(IC50 CDK12 high ATP) to (Degradation DC50 CDK12) ratio” value in experiment [2] is 537. Besides, the IC50 in experiment [3] was 5.43 nM.
For `c1ccc(-c2cnn3c(NCc4nc5ccccc5[nH]4)nc(N4CCOCC4)nc23)cc1` [Example 104, N-[(1H-benzimidazol-2-yl)methyl]-2-(morpholin-4-yl)-8-phenylpyrazolo[1,5-a][1,3,5]triazin-4-amine], in experiment [2], the DC50 amounted to 15.7 nM and the “(IC50 CDK12 high ATP) to (Degradation DC50 CDK12) ratio” value is on record as more than 1272. Besides, in experiment [3], the IC50 was found to be 30 nM. The IC50 in experiment [4] was found to be 127 nM.
For `Clc1cccc(-c2cnn3c(NCc4nc5ccccc5[nH]4)nc(N4CCOCC4)nc23)c1` [Example 107, N-[(1H-benzimidazol-2-yl)methyl]-8-(3-chlorophenyl)-2-(morpholin-4-yl)pyrazolo[1,5-a][1,3,5]triazin-4-amine], the DC50 in experiment [2] stood at 57.7 nM. The “(IC50 CDK12 high ATP) to (Degradation DC50 CDK12) ratio” value in experiment [2] was more than 347. The IC50 is 151 nM in experiment [3] and 188 nM in experiment [4].
On to `CC(C)c1cnn2c(NCc3nc4ccccc4[nH]3)nc(NCC(C)(C)O)nc12` [Example 10, 1-{[4-{[(1H-benzimidazol-2-yl)methyl]amino}-8-(propan-2-yl)pyrazolo[1,5-a][1,3,5]triazin-2-yl]amino}-2-methylpropan-2-ol], for which the DC50 in experiment [1] is 3.6 nM. Also, in experiment [2], the DC50 came out at 6.85 nM and the “(IC50 CDK12 high ATP) to (Degradation DC50 CDK12) ratio” value amounted to 1277. Further, in experiment [3], the IC50 is 25.3 nM.
With `CC1CN(C)CCN1c1nc(NCc2nc3ccccc3[nH]2)n2ncc(Br)c2n1` (stereo not shown) [Example 156, N-(1H-benzimidazol-2-ylmethyl)-8-bromo-2-(2,4-dimethylpiperazin-1-yl)pyrazolo[1,5-a][1,3,5]triazin-4-amine], the results for the DC50 in experiment [1] and in experiment [2] were 0.249 nM and 1.06 nM, respectively. Further, the “(IC50 CDK12 high ATP) to (Degradation DC50 CDK12) ratio” value in experiment [2] is on record as 8849. Also, the IC50 in experiment [4] stood at 5.45 nM.
As for `Fc1ccccc1-c1cnn2c(NCc3nc4ccccc4[nH]3)nc(N3CCOCC3)nc12` [Example 95, N-[(1H-benzimidazol-2-yl)methyl]-8-(2-fluorophenyl)-2-(morpholin-4-yl)pyrazolo[1,5-a][1,3,5]triazin-4-amine], in experiment [2], the DC50 came out at 34.3 nM and the “(IC50 CDK12 high ATP) to (Degradation DC50 CDK12) ratio” value was more than 584. For the same compound, in experiment [3], the IC50 worked out at 147 nM. Also, the IC50 in experiment [4] was 230 nM.
In the same order, the values of `[O-][S+]1CCN(c2nc(NCc3nc4ccccc4[nH]3)n3ncc(Br)c3n2)CC1` [Example 144, 4-(4-{[(1H-benzimidazol-2-yl)methyl]amino}-8-bromopyrazolo[1,5-a][1,3,5]triazin-2-yl)-1lambda^4-thiomorpholin-1-one] are 6.32 nM, 590, 83.3 nM and 110 nM.

The record behind these values is US20230117034A1, “PYRAZOLOTRIAZINES” (Bayer Aktiengesellschaft, priority 2019, published 2023).
